Assay [1] addresses T1, GKRP (Glucokinase Regulatory Protein) with human His-hepatic GK (Homo sapiens, UniProt Q14397).
T1 sequence (Q14397 1-625): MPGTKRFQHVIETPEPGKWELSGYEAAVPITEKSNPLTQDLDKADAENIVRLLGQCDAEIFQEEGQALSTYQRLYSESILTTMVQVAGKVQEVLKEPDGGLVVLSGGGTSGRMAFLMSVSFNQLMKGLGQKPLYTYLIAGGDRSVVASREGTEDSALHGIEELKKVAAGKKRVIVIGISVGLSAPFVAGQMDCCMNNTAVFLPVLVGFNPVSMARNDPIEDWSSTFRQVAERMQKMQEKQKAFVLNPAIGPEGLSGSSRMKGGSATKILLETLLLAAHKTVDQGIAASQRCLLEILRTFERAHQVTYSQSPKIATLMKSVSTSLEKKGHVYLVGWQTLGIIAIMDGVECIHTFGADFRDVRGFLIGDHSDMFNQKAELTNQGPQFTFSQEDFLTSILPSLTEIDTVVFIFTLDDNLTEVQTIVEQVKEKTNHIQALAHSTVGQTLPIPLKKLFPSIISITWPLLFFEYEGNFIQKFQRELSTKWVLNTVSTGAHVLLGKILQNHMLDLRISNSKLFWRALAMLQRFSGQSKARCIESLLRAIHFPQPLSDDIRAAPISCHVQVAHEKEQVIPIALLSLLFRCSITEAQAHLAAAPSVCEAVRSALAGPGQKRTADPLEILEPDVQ
As to the kind of experiment: biochemical. Put shortly:
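Product formation, 13C-glucose-6-phosphate from 13C-glucose, was measured directly by LC MS/MS after acetonitrile quench. The GK reaction ran 30 min at room temperature in Tris pH 7.5 buffer with 4 mM MgCl2 and 6% DMSO. The 5× enzyme stock was 30 nM His-tagged human hepatic glucokinase.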

Assay [2] concerns the target T2, interaction between glucokinase (GK) and glucokinase regulatory protein (GKRP) (Homo sapiens, UniProt Q14397).
T2 sequence (Q14397 1-625): T1 sequence (Q14397 1-625)
Description: biochemical. The format is binding. The gist of the method: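 Measures direct GK–GKRP binding in 20 mM Tris pH 7.5 containing 1 μM sorbitol-6-phosphate, 0.05% BSA and 1 mM DTT. Compound and avi-tagged GKRP sit 20 min at room temperature before GK-fluorescein addition (6 nM in the added buffer); read after 2 h dark incubation at room temperature.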

Where [3] appears, read: 13C-glucose-6-phosphate formation, 280 nM GKRP (10×), 30 nM GK (5×), read-out: GK-GKRP EC50 (LC MS/MS-2).
The mark [4] stands for this setting: avi-tagged GKRP, GK-fluorescein, AlphaScreen beads, read-out: GK-GKRP IC50 (Binding).
Setting [5] is: GK-GKRP EC50 (LC MS/MS-2), 13C-glucose-6-phosphate formation, 280 nM GKRP (10×), 30 nM GK (5×).

Our source for the EC50 and IC50 values is patent US8431563B2 (priority 2010, dated 2013).

By IC50 is commonly meant the concentration needed to halve the response being measured.

Where two headings read alike, the source gives them in different places.

Regarding `CN(C[C@H]1CN(S(=O)(=O)c2cccs2)CCN1c1ccc(C(C)(O)C(F)(F)F)cc1)S(C)(=O)=O` (mixture of isomers) [Example 208, N-methyl-N-(((2S)-4-(2-thiophenylsulfonyl)-1-(4-(2,2,2-trifluoro-1-hydroxy-1-methylethyl)phenyl)-2-piperazinyl)methyl)methane sulfonamide], the EC50 in assay [1] (setting [3]) was 234 nM. Further, in assay [2] (setting [4]), the IC50 came out at 112 nM.

As to `CC(C)N(C[C@H]1CN(S(=O)(=O)c2cccs2)CCN1c1ccc(C(C)(O)C(F)(F)F)cc1)S(=O)(=O)c1cccnc1` (mixture of isomers) [Example 198, N-(1-methylethyl)-N-(((2R)-4-(2-thiophenylsulfonyl)-1-(4-(2,2,2-trifluoro-1-hydroxy-1-methylethyl)phenyl)-2-piperazinyl)methyl)-3-pyridinesulfonamide], the EC50 in assay [1] (setting [3]) is 177 nM. Also, the 50% inhibitory concentration (IC50) in assay [2] (setting [4]) worked out at 108 nM.

Regarding `CC(O)(c1ccc(N2CCN(S(=O)(=O)c3cccs3)C[C@@H]2CN2C3COCC2C(O)C3)cc1)C(F)(F)F` (single isomer, unassigned) [Example 78 Peak #1], the EC50 in assay [1] (setting [3]) turned out to be 146 nM. In addition, the 50% inhibitory concentration (IC50) in assay [2] (setting [4]) was 44 nM.

`C[C@H]1CN(S(=O)(=O)c2ccc(N)s2)CCN1c1ncc(C(C)(O)C(F)(F)F)cn1` (mixture of isomers) [Example 137, 2-(2-((2S)-4-((5-amino-2-thiophenyl)sulfonyl)-2-methyl-1-piperazinyl)-5-pyrimidinyl)-1,1,1-trifluoro-2-propanol] came in with an EC50 in assay [1] (GK-GKRP EC50 (LC MS/MS-2)) of 658 nM. For the same molecule, the half-maximal inhibitory concentration (IC50) in assay [2] (GK-GKRP IC50 (Binding)) worked out at 281 nM.

Molecule `CC(C)N(C[C@H]1CN(S(=O)(=O)c2cccs2)CCN1c1ccc(C(C)(O)C(F)(F)F)cc1)C(C)C` (mixture of isomers) [Example 194, 2-(4-((2S)-2-((bis(1-methylethyl)amino)methyl)-4-(2-thiophenylsulfonyl)-1-piperazinyl)phenyl)-1,1,1-trifluoro-2-propanol] had an EC50 in assay [1] (setting [5]) of 179 nM. Also, the IC50 in assay [2] (setting [4]) amounted to 205 nM.

Take `CC1(C)C(=O)NC(=O)N1C[C@H]1CN(S(=O)(=O)c2cccs2)CCN1c1ccc(C(C)(O)C(F)(F)F)cc1` (mixture of isomers) [Example 228, 5,5-dimethyl-1-(((2S)-4-(2-thiophenylsulfonyl)-1-(4-(2,2,2-trifluoro-1-hydroxy-1-methylethyl)phenyl)-2-piperazinyl)methyl)-2,4-imidazolidinedione]: the EC50 in assay [1] (setting [3]) worked out at 312 nM. Further, the 50% inhibitory concentration (IC50) in assay [2] (setting [4]) worked out at 151 nM.

As to `O=S(=O)(c1nccs1)N1CCN(c2ncc(C(O)(C(F)(F)F)C(F)(F)F)cn2)[C@@H](CN2C3COCC2C(O)C3)C1` (stereo partly drawn) [Example 81, 8-(((2S)-4-(1,3-thiazol-2-ylsulfonyl)-1-(5-(2,2,2-trifluoro-1-hydroxy-1-(trifluoromethyl)ethyl)-2-pyrimidinyl)-2-piperazinyl)methyl)-3-oxa-8-azabicyclo[3.2.1]octan-6-ol], the EC50 in assay [1] (setting [3]) stood at 287 nM. In addition, the IC50 in assay [2] (setting [4]) worked out at 177 nM.

For the molecule `CC(O)(c1ccc(N2CCN(S(=O)(=O)c3cccs3)C[C@@H]2CN2C3COCC2C(O)C3)cc1)C(F)(F)F` (single isomer, unassigned; peak #4) [Example 77 Peak #4], the EC50 in assay [1] (setting [3]) is 65 nM. In assay [2] (setting [4]), the IC50 was 42 nM.

`C[C@H]1COCCN1C[C@H]1CN(S(=O)(=O)c2ccc(N)nc2)CCN1c1ccc([C@@](C)(O)C(F)(F)F)cc1` (single isomer, unassigned) [Example 125 Peak #1]: the EC50 in assay [1] (setting [3]) amounted to 26 nM. Also, in assay [2] (setting [4]), the 50% inhibitory concentration (IC50) was found to be 4 nM.

For `O=S(=O)(c1cccs1)N1CCN(c2ncc(C(O)(C(F)(F)F)C(F)(F)F)cn2)[C@@H](CN2C3COCC2C(O)C3)C1` (stereo partly drawn) [Example 79, 8-(((2S)-4-(2-thiophenylsulfonyl)-1-(5-(2,2,2-trifluoro-1-hydroxy-1-(trifluoromethyl)ethyl)-2-pyrimidinyl)-2-piperazinyl)methyl)-3-oxa-8-azabicyclo[3.2.1]octan-6-ol], in assay [1] (setting [3]), the EC50 came out at 58 nM. Besides, the IC50 in assay [2] (setting [4]) turned out to be 39 nM.

On to `C[C@H]1CN(S(=O)(=O)c2ccccc2N)CCN1c1ncc(C(O)(C(F)(F)F)C(F)(F)F)cn1` [Example 167, (S)-2-(2-(4-(2-aminophenylsulfonyl)-2-methylpiperazin-1-yl)pyrimidin-5-yl)-1,1,1,3,3,3-hexafluoro-2-propanol], for which the EC50 in assay [1] (setting [3]) amounted to 516 nM. The IC50 in assay [2] (setting [4]) was found to be 508 nM.

Take `C[C@H]1CN(S(=O)(=O)c2ccc(N)nc2)CCN1c1ncc(C(O)(C(F)(F)F)C(F)(F)F)cn1` [Example 93, 2-(2-((2S)-4-((6-amino-3-pyridinyl)sulfonyl)-2-methyl-1-piperazinyl)-5-pyrimidinyl)-1,1,1,3,3,3-hexafluoro-2-propanol]: in assay [1] (setting [3]), the EC50 is 196 nM. The IC50 in assay [2] (setting [4]) came to 190 nM.

With `Nc1ccc(S(=O)(=O)N2CCN(c3ncc(C(O)(C(F)(F)F)C(F)(F)F)cn3)[C@@H](CC3CCOCC3)C2)cn1` [Example 130, 2-(2-((2S)-4-((6-amino-3-pyridinyl)sulfonyl)-2-(tetrahydro-2H-pyran-4-ylmethyl)-1-piperazinyl)-5-pyrimidinyl)-1,1,1,3,3,3-hexafluoro-2-propanol], the EC50 in assay [1] (setting [3]) came out at 134 nM. Further, the IC50 in assay [2] (setting [4]) was determined as 62 nM.

As to `CC(O)(c1ccc(N2CCN(S(=O)(=O)c3ccc(N)nc3)C[C@@H]2CC2CCOCC2)cc1)C(F)(F)F` (mixture of isomers) [Example 127, 2-(4-((2S)-4-((6-amino-3-pyridinyl)sulfonyl)-2-(tetrahydro-2H-pyran-4-ylmethyl)-1-piperazinyl)phenyl)-1,1,1-trifluoro-2-propanol], in assay [1] (setting [3]), the EC50 was found to be 58 nM. The concentration for half-maximal inhibition (IC50) in assay [2] (setting [4]) stood at 55 nM.

As for `CC1(C)C(=O)NCCN1C[C@H]1CN(S(=O)(=O)c2cccs2)CCN1c1ncc(C(O)(C(F)(F)F)C(F)(F)F)cn1` [Example 226, 3,3-dimethyl-4-(((2S)-4-(2-thiophenylsulfonyl)-1-(5-(2,2,2-trifluoro-1-hydroxy-1-(trifluoromethyl)ethyl)-2-pyrimidinyl)-2-piperazinyl)methyl)-2-piperazinone], the EC50 in assay [1] (setting [3]) is 14 nM. Moreover, the half-inhibitory concentration (IC50) in assay [2] (setting [4]) is 6 nM.

Consider `CC(O)(c1ccc(N2CCN(S(=O)(=O)c3cccs3)C[C@@H]2COCc2ccco2)cc1)C(F)(F)F` (mixture of isomers) [Example 116, 1,1,1-trifluoro-2-(4-((2R)-2-((2-furanylmethoxy)methyl)-4-(2-thiophenylsulfonyl)-1-piperazinyl)phenyl)-2-propanol], for which the EC50 in assay [1] (setting [3]) is 103 nM. In assay [2] (setting [4]), the 50% inhibitory concentration (IC50) came out at 284 nM.

In the case of `C[C@H]1COCCN1C[C@H]1CN(S(=O)(=O)c2ccc(N)nc2)CCN1c1ccc(C(C)(O)C(F)(F)F)cc1` (single isomer, unassigned) [Example 125 Peak #2], the EC50 in assay [1] (setting [3]) is 18 nM. In addition, in assay [2] (setting [4]), the 50% inhibitory concentration (IC50) was 7 nM.

With `CC(O)(c1ccc(N2CCN(S(=O)(=O)c3cccs3)C[C@@H]2CN2C3COCC2C(O)C3)cc1)C(F)(F)F` (single isomer, unassigned) [Example 78 Peak #4], the EC50 in assay [1] (setting [3]) was 46 nM. The IC50 in assay [2] (setting [4]) was 40 nM.

For the molecule `CC(O)(c1ccc(N2CCN(S(=O)(=O)c3cccs3)C[C@@H]2CN2CCOCC2c2ccc(F)cc2)cc1)C(F)(F)F` (single isomer, unassigned) [Example 115 Peak #1], the EC50 in assay [1] (setting [3]) is 308 nM. Further, the half-inhibitory concentration (IC50) in assay [2] (setting [4]) came to 589 nM.

In the case of `CC1CNC(=O)CN1C[C@H]1CN(S(=O)(=O)c2cccs2)CCN1c1ccc(C(C)(O)C(F)(F)F)cc1` (mixture of isomers) [Example 183, 5-methyl-4-(((2S)-4-(2-thiophenylsulfonyl)-1-(4-(2,2,2-trifluoro-1-hydroxy-1-methylethyl)phenyl)-2-piperazinyl)methyl)-2-piperazinone], in assay [1] (setting [3]), the EC50 was determined as 287 nM. Also, the concentration for half-maximal inhibition (IC50) in assay [2] (setting [4]) worked out at 171 nM.

As for `CC(O)(c1ccc(N2CCN(S(=O)(=O)c3cccs3)C[C@@H]2CN2CCOC[C@@H]2CO)cc1)C(F)(F)F` (single isomer, unassigned) [Example 111 Peak #2], the EC50 in assay [1] (read-out: GK-GKRP EC50 (LC MS/MS-2)) turned out to be 113 nM. The IC50 in assay [2] (read-out: GK-GKRP IC50 (Binding)) turned out to be 67 nM.

With `CC(O)(c1ccc(N2CCN(S(=O)(=O)c3cccs3)C[C@@H]2CNC2CCOCC2)cc1)C(F)(F)F` (mixture of isomers) [Example 120, 1,1,1-trifluoro-2-(4-((2S)-2-((tetrahydro-2H-pyran-4-ylamino)methyl)-4-(2-thiophenylsulfonyl)-1-piperazinyl)phenyl)-2-propanol], the EC50 in assay [1] (setting [5]) is 656 nM. Besides, the concentration for half-maximal inhibition (IC50) in assay [2] (setting [4]) is 493 nM.
